Laboratory results published in patent US9504747B2, “Lipids and lipid compositions for the delivery of active agents” (Novartis AG, priority 2013, dated 2016).

Experiments:
[1] = pKa measurement of the cationic lipid (TNS fluorescence vs pH); assay type: physicochemical; conditions: probe TNS (fluorescent probe), pKa of the cationic lipid of formula (I)
Method in brief: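 Lipid (2 mM ethanol stock) mixed with TNS probe (0.3 mM stock) and diluted into twelve sodium phosphate/citric acid buffers of varying pH. TNS fluorescence read after background subtraction and normalized to the lowest-pH value. pKa taken as the pH at half-maximal normalized fluorescence on the smoothed curve, precise to about 0.1 units.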

[2] = Particle size of the lipid nanoparticle (dynamic light scattering, Malvern Zetasizer); assay type: physicochemical; conditions: Z-average
Text: The lipid nanoparticles have a size of about 1 to about 2,500 nm, about 1 to about 1,500 nm, about 1 to about 1,000 nm, in a sub-embodiment about 50 to about 600 nm, in a sub-embodiment about 50 to about 400 nm, in a sub-embodiment about 50 to about 250 nm, and in a sub-embodiment about 50 to about 150 nm. Unless indicated otherwise, all sizes referred to herein are the average sizes (diameters) of the fully formed nanoparticle, as measured by dynamic light scattering on a Malvern Zetasizer. The nanoparticle sample is diluted in phosphate buffered saline (PBS) so that the count rate is approximately 200-400 kcts. The data is presented as a weighted average of the intensity measure. The lipid nanoparticles (LNPs) were formed by mixing equal volumes of lipids dissolved in alcohol with siRNA dissolved in a citrate buffer by an impinging jet process. […] The siRNA to total lipid ratio is approximately 0.05 (wt/wt). Where a LNP formulation contains four lipid components, the molar ratios correspond to the type of lipid as it appears in the first four columns of the table, in the order that they appear. The ratio of the lipids ranges from 20 to 70 mole percent for the cationic lipid with a target of 40-60, the mole percent of helper lipid ranges from 20 to 70 with a target of 30 to 50, the mole percent of neutral lipid ranges from 0-30, the mole percent of PEG lipid has a range from 1 to 6 with a target of 2 to 5. The concentration of siRNA solution ranges from 0.7 to 1.0 mg/mL with a target of 0.8 to 0.9 mg/mL in a sodium citrate: sodium chloride buffer pH 4-6, with a target of 4.5-5.5. The LNPs are formed by mixing equal volumes of lipid solution in ethanol with siRNA dissolved in a citrate buffer by an impinging jet process through a mixing device with ID ranging from 0.25 to 2.0 mm at a flow rate from 10 to 640 mL/min. The mixed LNP solution is held at room temperature for 0-24 hrs prior to a dilution step. […] The final product is sterile filtered and stored at 4° C. Unless indicated otherwise, all particle size measurements referred to in Tables 4 and 5 are the Z-average particle size of the fully formed nanoparticle, as measured by dynamic light scattering on a Malvern Zetasizer. The nanoparticle sample was diluted in phosphate buffered saline (PBS) so that the count rate is approximately 200-400 kcts.

[3] = Polydispersity index (PDI) of the lipid nanoparticle (dynamic light scattering); assay type: physicochemical
Method in brief: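 LNPs made by impinging-jet mixing of lipids in ethanol with siRNA in citrate buffer, pH 4-6, siRNA:total lipid ~0.05 wt/wt; sterile filtered, stored at 4° C. Samples diluted in PBS to ~200-400 kcts count rate before dynamic light scattering. PDI reported as intensity-weighted average of fully formed particles.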

PLK-1 mRNA = assay: LS411N Xenograft Assay with PLK1-424 siRNA lipid nanoparticles; assay type: in vivo, Female Nu/Nu mice; conditions: percent knock down of PLK-1 mRNA in tumor vs control, 3 mg/kg IV daily for three days, 24 h post last injection
Protocol: Female Nu/Nu mice (6-8 weeks old) were implanted subcutaneously with 5×10^6 LS411N cells. Tumor growth was monitored by caliper measurement before treatment initiation. Mice bearing 150-250 mm^3 subcutaneous tumors were randomized and enrolled in the study. The stock siRNA formulations were diluted to […] with PBS for dosing. Animals enrolled in different groups received a single daily bolus IV injection of 3 mg/kg siRNA for three days. Tumors were harvested 24 hours post last injection to assess target gene regulation by qRT-PCR.
Lipid nanoparticles comprising lipid compounds of formula (I) and the PLK1-424 siRNA duplex sequence listed above were tested in the LS411N Xenograft Assay. The results of this assay are given in Table 5 below as a percent knock down of PLK-1 mRNA as compared to the control when administered as a single daily dose for three days at a dose of 3 mg/kg.

[4] = Table 4, FVII siRNA LNP, Chol/DSPC/stealth lipid PEG-DMG, molar ratio 45/44/9/2
[5] = Table 4, FVII siRNA LNP, Chol/DSPC/stealth lipid S010, molar ratio 45/44/9/2
[6] = Table 5, PLK1-424 siRNA LNP, Chol/DSPC/stealth lipid PEG-DSG, 45/44/9/2
[7] = Table 5, PLK1-424 siRNA LNP, Chol/DSPC/stealth lipid S010, 45/44/9/2
[8] = Table 4, FVII siRNA LNP, Chol/DSPC/stealth lipid PEG-DMG, 45/44/9/2
[9] = Table 4, FVII siRNA LNP, Chol/DSPC/stealth lipid S010, 45/44/9/2
[10] = Table 5, PLK1-424 siRNA LNP, stealth lipid PEG-DSG, 45/44/9/2
[11] = Table 5, PLK1-424 siRNA LNP, stealth lipid S010, 45/44/9/2

SMILES | pKa ([1]; Table 4) | pKa ([1]; Table 5) | Size (nm) [2, 4] [nm] | Size (nm) [2, 5] [nm] | Size (nm) [2, 6] [nm] | Size (nm) [2, 7] [nm] | PDI [3, 8] | PDI [3, 9] | PDI [3, 10] | PDI [3, 11] | LS411 KD 3 × 3 mg/Kg (PLK-1 mRNA; stealth lipid PEG-DSG) [%] | LS411 KD 3 × 3 mg/Kg (PLK-1 mRNA; stealth lipid S010) [%]
CCCCCCCCCC(=O)OCCCCCCCCOc1cc(CN(C)C)cc(OCCCCCCCCOC(=O)CCCCCCCCC)c1 [Example 52] | 5.96 | 5.96 | 109.4 | 145.4 | 132.2 | 132.2 | 0.1 | 0.052 | 0.06 | 0.06 | 69 | 50
CCCCCCCC(=O)OCCCCCCCCOc1cc(CN(C)C)cc(OCCCCCCCCOC(=O)CCCCCCC)c1 [Example 42] | 5.93 | 5.93 | – | 120 | – | 181.1 | – | 0.084 | – | 0.06 | – | 50
CCCCCCCC(=O)OCCCCCCCCCCOc1cc(CN(C)C)cc(OCCCCCCCCCCOC(=O)CCCCCCC)c1 [Example 43] | 5.85 | 5.85 | 157.8 | 121.9 | – | 150.7 | 0.08 | 0.066 | – | 0.046 | – | 40
CCCCC/C=C\C/C=C\CCCCCCCC(=O)OCCCOc1cc(CN(C)C)cc(OCCCOC(=O)CCCCCCC/C=C\C/C=C\CCCCC)c1 [Example 39] | 5.91 | 5.91 | – | 122.9 | – | 114.3 | – | 0.044 | – | 0.039 | – | 55
CCCCC/C=C\C/C=C\CCCCCCCC(=O)OCCCCOc1cc(CN(C)C)cc(OCCCCOC(=O)CCCCCCC/C=C\C/C=C\CCCCC)c1 [Example 38] | 5.93 | 5.93 | 108.0 | 120 | 116.8 | 116.8 | 0.02 | 0.04 | 0.036 | 0.036 | 58 | 60
CCCCC/C=C\C/C=C\CCCCCCCC(=O)OCCCCOc1cc(CN(C)C)cc(OCCCCOC(=O)CCCCCCC/C=C\CCCCCCCC)c1 [Example 63] | 5.92 | 5.9 | – | – | – | – | – | 0.057 | 0.047 | – | 66 | –
